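1) Cells in 96-well plates. 2) Compound, 48 h, 5 concentrations. 3) Linear interpolation between surrounding doses. 4) Unreached endpoint = highest concentration. At the GI50, growth is halved.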 Active and inactive are the calls of the source. Cut-off read from the data, not from the text of the source: active = GI50 up to about 1.1 µM and inactive = higher.
Key:
Test in all cases: growth of human tumour cells (NCI), 48 h
[1] = test system: HCC 2998
[2] = test system: OVCAR-5
[3] = test system: CCRF-CEM
[4] = test system: M14
[5] = test system: OVCAR-8
[6] = test system: SF-539
[7] = test system: UO-31
[8] = test system: U-251
[9] = test system: SK-MEL-28
[10] = test system: K562
[11] = test system: A549
[12] = test system: IGROV-1
[13] = test system: Malme-3M
[14] = test system: HOP-62
[15] = test system: SN12C
[16] = test system: SNB-75
[17] = test system: T47D
[18] = test system: DU-145
[19] = test system: MDA-MB-231
[20] = test system: NCI/ADR-RES
[21] = test system: RPMI-8226
[22] = test system: SF-268
[23] = test system: MOLT-4
[24] = test system: KM12
[25] = test system: A498
[26] = test system: NCI-H23
[27] = test system: CAKI-1
[28] = test system: LOX IMVI
[29] = test system: COLO 205
[30] = test system: UACC-62
[31] = test system: SF-295
[32] = test system: ACHN
[33] = test system: SNB-19
[34] = test system: OVCAR-3
[35] = test system: BT-549
[36] = test system: NCI-H226
[37] = test system: SR
[38] = test system: MCF7
[39] = test system: HCT-15
[40] = test system: HOP-92
[41] = test system: 786-0
[42] = test system: HCT-116
[43] = test system: MDA-MB-435
[44] = test system: PC-3
[45] = test system: EKVX
[46] = test system: NCI-H460
[47] = test system: HL-60
[48] = test system: MDA-N
[49] = test system: TK-10
[50] = test system: SK-OV-3
[51] = test system: SW-620
[52] = test system: RXF 393
[53] = test system: SK-MEL-5
[54] = test system: HT-29
[55] = test system: UACC-257
[56] = test system: NCI-H522
[57] = test system: OVCAR-4
[58] = test system: Hs-578T
[59] = test system: SK-MEL-2

Measured: GI50

O=[N+]([O-])/C(Cl)=C(\NCCN/C(C(Cl)=C(Cl)Cl)=C(/Cl)[N+](=O)[O-])C(Cl)=C(Cl)Cl
36.6 µM: [39]
inactive: [1] 83.6 µM | [2] > 100 µM | [3] 27 µM | [4] 61.1 µM | [5] 40.3 µM | [6] > 100 µM | [7] > 100 µM | [8] 48.8 µM | [9] 57.8 µM | [10] 27.8 µM | [11] 45.2 µM | [12] 62.7 µM | [13] 46.5 µM | [14] 71.8 µM | [15] 70.5 µM | [16] 35.5 µM | [17] 51.2 µM | [18] > 100 µM | [19] 52.1 µM | [20] 89.7 µM | [21] 17.7 µM | [22] 40.8 µM | [23] 22 µM | [24] 31.8 µM | [25] 48.1 µM | [26] 28.7 µM | [27] > 100 µM | [28] 18.8 µM | [29] 36.4 µM | [30] 31.2 µM | [31] 39.7 µM | [32] > 100 µM | [33] 92.9 µM | [34] 16.5 µM | [35] 69 µM | [36] > 100 µM | [37] 17.1 µM | [38] 47.6 µM | [40] 17.9 µM | [41] 31.6 µM | [42] 39.1 µM | [43] 87.1 µM | [44] 43.6 µM | [45] > 100 µM | [46] 49.5 µM | [47] 25.6 µM | [48] 82.2 µM | [49] 71.4 µM | [50] 69.5 µM | [51] 47.5 µM

CC(C)(C)[Si](C)(C)Oc1ccc(C2CNC(=O)C23CCC(=O)N3Cc2ccccc2)cc1 (configuration not stated)
12.8 µM: [39]
inactive: [2] 17.5 µM | [3] 17.6 µM | [4] 16.4 µM | [5] 12.6 µM | [6] 16.7 µM | [52] 10.7 µM | [7] 16 µM | [8] 12.5 µM | [10] 7.24 µM | [11] 10 µM | [12] 15.3 µM | [13] 18.2 µM | [14] 20.5 µM | [15] 15 µM | [16] 17.8 µM | [17] 15.9 µM | [18] 16.7 µM | [53] 5.71 µM | [20] 12.8 µM | [21] 4.15 µM | [22] 12.6 µM | [23] 6.14 µM | [24] 15.8 µM | [25] 12.2 µM | [26] 11.4 µM | [27] 19.7 µM | [28] 16.1 µM | [29] 11.7 µM | [54] 12.2 µM | [55] 12.4 µM | [30] 15.2 µM | [31] 13.9 µM | [32] 15 µM | [33] 15 µM | [34] 12.5 µM | [35] 15.5 µM | [36] 18.9 µM | [37] 7.96 µM | [38] 4.54 µM | [40] 17.1 µM | [56] 10.7 µM | [57] 13.7 µM | [41] 18.9 µM | [42] 22.2 µM | [43] 12.4 µM | [44] 15.2 µM | [45] 6.68 µM | [46] 7.14 µM | [58] 7.31 µM | [47] 4.62 µM | [48] 13.3 µM | [49] 13.2 µM | [50] 15.5 µM | [51] 15.1 µM | [59] 16.6 µM

From ChEMBL document CHEMBL1201862, “PubChem BioAssay data set” (2004)
